Consider one compound from patent US20240165132A1, “METHODS AND MATERIALS FOR TREATING CANCER” (Mayo Foundation for Medical Education and Research, priority 2021, published 2024).

For this test, the system named is GBM76 and GBM39. Briefly: BCL-2 family inhibitors after TMZ exposure. Conditions: TMZ 100 μM 7 days then 14 days TMZ-free media. Type of test: cell-based, human.

Method: GBM76 and GBM39 were treated with TMZ (100 μM) for 7 days followed by 14 days TMZ-free media prior to treatment with BCL-2 family inhibitors as shown. […] For all experiments, luminescence values are normalized individually to 0 nM control. All data are means±SEM of 3 technical replicates at each concentration.
After plating, cells were maintained in 10 cm culture dishes for 2-4 days until >50% confluent. Cells were then treated with TMZ for 7 days or radiation (cesium gamma radiator) with varying doses. Most experiments were performed after use of 15 Gy to induce senescence. […] “Senescent” tumor cells used for experiments are designated by those that survive following TMZ or radiation treatments. […] For initial screening of senolytic drugs, cells were maintained for at least 20 days after radiation or TMZ prior to re-plating cells into black walled optical 96-well plates (5000 cells/well) for doing drug treatment.
Human glioblastoma cells were exposed to 10, 15 or 20 Gy radiation as indicated above. […] All senolytic drugs used in this study were dissolved in DMSO (Table 1). Control (0 nM) cells were treated with the same dose of DMSO as cells with the highest drug concentration. […] For all experiments, luminescence values are normalized to the 0 nM control for that cell line and radiation dose. […]

Take `Cc1c(-c2ccc(N3CCc4cccc(C(=O)Nc5nc6ccccc6s5)c4C3)nc2C(=O)O)cnn1CC12CC3CC(CC(C3)C1)C2` [A1331852]: the “Selective vulnerability of TMZ-treated cells” value is on record as “selective vulnerability”.
